Patent US20170044232A1, “MUTANT SMOOTHENED AND METHODS OF USING THE SAME” (GENENTECH, INC., priority 2014, published 2017)
“Also recorded” adds a separate entry of the source.

Key:
[1] = tested on: PPT CGNPs expressing vismodegib-resistant SMO mutants; assay: PPT CGNP proliferation, methyl-[3H]-thymidine incorporation; format: cell-based, mice; conditions: 1 μM JQ1 (FIG. 16B)
Excerpt: (§1) It has previously been noted that Hh-driven tumor cells rapidly lose their Hh pathway dependence during culturing (Sasai et al., 2006). However, CGNPs proliferate in vivo in a Hh dependent manner and maintain their Hh pathway dependence in culture for a finite period (Wechsler-Reya and Scott, 1999). CGNPs isolated from Ptch1loxp/loxp Tp53loxp/loxp Rosa26LSL-tdTomato (PPT) pups were infected with lentiviral constructs expressing a SMO variant together with an enhanced green fluorescent protein (eGFP)-Cre fusion protein (FIG. 12C). The Cre recombinase induces loss of Ptch1 and thus ensures that only transduced CGNPs can proliferate in the absence of exogenous Sonic hedgehog ligand (SHH; FIG. 11D). […] Proliferation by methyl-[3H]-thymidine incorporation was monitored, while Cre-dependent tandem dimer (td) Tomato expression enabled visualization and quantification of infected cells.
(§2) SMO mutants were generated in pRK5-SMO vectors as described (Dijkgraaf et al., 2011; Yauch et al., 2009) and were either utilized in Gli-luciferase reporter assays as described (Dijkgraaf et al., 2011) or cloned into lentiviral vectors for transduction of primary CGNP cultures. Proliferation was assayed using methyl-[3H]-thymidine incorporation (Kool et al., 2014).
(§3) Cerebella from post-natal day 5-7 Ptch1^loxp/loxp Rosa26^LSL.tdTomato Tp53^loxp/loxp mice were dissociated in 0.05% Trypsin for 10 min at 37° C. Cells were collected by centrifugation at 514×g for 10 min at 4° C., resuspended in CGNP media (Neurobasal medium (Life Technologies) containing 1×B27 (without vitamin A; Life Technologies), 0.45% glucose (Sigma Aldrich), 25 mM KCl, 0.4% bovine serum albumin (Sigma Aldrich), 2 mM glutamine, 100 U/ml Penicillin (Life Technologies), 100 μg/ml Streptomycin (Life Technologies), 200 ng/ml octylated recombinant SHH) and filtered through a 0.45 μm filter (Falcon). Cells were plated in poly-D-lysine coated 6-well plates (Corning) at 5×10E5 cells/well and infected with lentivirus at a multiplicity of infection (MOI) of 1. After 24 hr, cells were harvested by trypsinization, collected in CGNP media and replated for downstream applications.
(§4) To examine the effects of HPIs on proliferation, virally transduced CGNPs were plated in poly-D-lysine-coated 96-well plates (Corning) at 25,000 cells/well in CGNP media without SHH. […] After 24 hr, cells were pulsed with 1 μCi/ml methyl-[^3H]-thymidine (Amersham/GE Healthcare) and cultured for an additional 16-24 hr. Cells were harvested onto 96-well filter plates (Perkin Elmer) using a Filtermate Cell Harvester (Perkin Elmer), and incorporated radioactivity was quantified by liquid scintillation spectrophotometry on a TopCount NXT (PerkinElmer).

SMO-A459V = molecular target: T1, SMO-A459V (Homo sapiens, UniProt Q99835, A459V); assay: Gli-luciferase based Hh reporter assay; format: cell-based; conditions: C3H10T½ cells
T1 construct: expressed in transfected cells; host or cells: C3H10T1/2 cells
Method: as §2
C3H10T½ cells (ATCC) were seeded into six-well plates at 1.75×10E5 cells/well in DMEM High Glucose with 4 mM glutamine, 10 mM Hepes pH 7.2 and 10% FBS. After 16 h cells were transfected with 400 ng of expression construct, 400 ng of 9×-Gli-BS and 200 ng of pRL-TK per well using GeneJuice Transfection Reagent (Novagen). For the PTCH1 inhibition experiments, cells were transfected with 200 ng SMO expression construct and an additional 200 ng of DNA containing varying ratios of PTCH1 to empty vector. Six hours later, cells from one well were trypsinized and redistributed over four wells of a 12-well plate. After 16 hours the FBS content of the culture medium was reduced to 0.5% to induce formation of primary cilia, and small molecule Hh inhibitors were added at indicated concentrations. Firefly luciferase activity was determined 24 hours later with the Dual-Glo Luciferase Assay System (Promega) and read using a Wallac EnVision plate reader (Perkin Elmer). […]

[2] = tested on: PPT CGNPs infected with SMO DBP mutants; assay: PPT CGNP proliferation, methyl-[3H]-thymidine incorporation; format: cell-based, mice; conditions: all DBP mutations; >1 μM vismodegib (FIG. 12D)
Excerpt: as §1, §2, §3, §4

[3] = tested on: SMO-A459V expressing CGNPs; assay: as above; format: cell-based, mice; conditions: SMO-A459V (FIG. 15D)
Excerpt: as §1, §2, §3, §4

[4] = tested on: SMOW535L expressing CGNPs; assay: as above; format: cell-based, mice; conditions: SMOW535L (FIG. 15D)
Excerpt: as §1, §2, §3, §4

SMO L515A = SMO L515A (Homo sapiens, UniProt Q99835, L515A); conditions: 1 mM vismodegib; cited from earlier work
SMO E518K = SMO E518K (Homo sapiens, UniProt Q99835, E518K); conditions: cited from earlier work
SMO E518A = SMO E518A (Homo sapiens, UniProt Q99835, E518A); conditions: cited from earlier work
advanced BCC = conditions: majority of patients; complete and partial responses (Sekulic et al., 2012); cited from earlier work

T1 sequence (Q99835 28-787 A459V): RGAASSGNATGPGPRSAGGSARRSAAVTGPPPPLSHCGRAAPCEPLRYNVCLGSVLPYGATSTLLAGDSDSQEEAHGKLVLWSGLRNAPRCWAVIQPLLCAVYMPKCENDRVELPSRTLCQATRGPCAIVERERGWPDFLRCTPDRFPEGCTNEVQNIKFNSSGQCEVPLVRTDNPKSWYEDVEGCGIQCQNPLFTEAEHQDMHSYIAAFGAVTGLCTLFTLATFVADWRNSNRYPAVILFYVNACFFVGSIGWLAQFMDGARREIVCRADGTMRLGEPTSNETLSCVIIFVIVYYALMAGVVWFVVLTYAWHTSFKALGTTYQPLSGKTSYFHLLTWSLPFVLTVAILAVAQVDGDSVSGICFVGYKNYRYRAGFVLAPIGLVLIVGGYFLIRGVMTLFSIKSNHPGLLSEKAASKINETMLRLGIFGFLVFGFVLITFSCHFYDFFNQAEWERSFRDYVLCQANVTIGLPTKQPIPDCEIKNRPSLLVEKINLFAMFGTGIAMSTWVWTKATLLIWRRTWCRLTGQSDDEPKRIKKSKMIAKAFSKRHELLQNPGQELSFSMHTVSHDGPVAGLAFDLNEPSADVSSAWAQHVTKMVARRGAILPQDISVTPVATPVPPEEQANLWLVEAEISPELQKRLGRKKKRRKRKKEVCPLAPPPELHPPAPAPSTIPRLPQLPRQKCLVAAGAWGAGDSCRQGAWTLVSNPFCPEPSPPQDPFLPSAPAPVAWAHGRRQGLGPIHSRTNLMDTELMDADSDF
Sequence of SMO L515A (Q99835 28-787 L515A): as the sequence (Q99835 28-787 A459V) above, with V432A, L488A counted along it
Sequence of SMO E518K (Q99835 28-787 E518K): as the sequence (Q99835 28-787 A459V) above, with V432A, E491K counted along it
Sequence of SMO E518A (Q99835 28-787 E518A): as the sequence (Q99835 28-787 A459V) above, with V432A, E491A counted along it

Structure (SMILES) | proliferation in the presence of JQ1 [1] | sensitivity to inhibition by vismodegib (SMO-A459V) | proliferation at high levels of vismodegib [2] | proliferation at high concentrations of vismodegib [3] | proliferation at high concentrations of vismodegib [4] | sensitivity to inhibition by vismodegib (SMO L515A) | sensitivity to vismodegib (SMO E518K) | sensitivity to vismodegib (SMO E518A) | clinical outcome of BCC patients treated with vismodegib (advanced BCC)
Cc1sc2c(c1C)C(c1ccc(Cl)cc1)=N[C@@H](CC(=O)OC(C)(C)C)c1nnc(C)n1-2 [JQ1] | reduced proliferation | – | – | – | – | – | – | – | –
CS(=O)(=O)c1ccc(C(=O)Nc2ccc(Cl)c(-c3ccccn3)c2)c(Cl)c1 [vismodegib] | – | decreased sensitivity; also recorded: reduced sensitivity | continuing to proliferate | continued to proliferate | continued to proliferate | activating, sensitive | reduced sensitivity to | reduced sensitivity to | clinical benefit
